Experimental findings from patent US12240862B2, “Inhibitors of peptidylarginine deiminases” (Gilead Sciences, Inc., priority 2020, dated 2025) are described below.

Molecules are shown by their SMILES.

For this test, the target named is T1, human PAD4 (Homo sapiens, UniProt Q9UM07).
T1 construct: human PAD4 (NM_012387), A2P663, was PCR amplified; His-SUMO (N, cleaved yes); made in house; host or cells: E. coli BL21(DE3)
As to the kind of experiment: In vitro PAD4 BAEE biochemical assay. The conditions noted are these: human PAD4, BAEE substrate; 5 nM PAD4, 2 mM calcium chloride, 3 mM BAEE; geometric mean of multiple experiments. In a few lines: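 Tag-free recombinant hPAD4 (5 nM), 2 mM CaCl2, 3 mM BAEE, 50 mM MOPS pH 7.6, 2 mM DTT; 30 min compound preincubation, 2 h reaction, all 25 °C. EDTA quench; ammonia read via o-phthalaldehyde amine coupling, 1 h.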

T1 sequence (Q9UM07 2-663): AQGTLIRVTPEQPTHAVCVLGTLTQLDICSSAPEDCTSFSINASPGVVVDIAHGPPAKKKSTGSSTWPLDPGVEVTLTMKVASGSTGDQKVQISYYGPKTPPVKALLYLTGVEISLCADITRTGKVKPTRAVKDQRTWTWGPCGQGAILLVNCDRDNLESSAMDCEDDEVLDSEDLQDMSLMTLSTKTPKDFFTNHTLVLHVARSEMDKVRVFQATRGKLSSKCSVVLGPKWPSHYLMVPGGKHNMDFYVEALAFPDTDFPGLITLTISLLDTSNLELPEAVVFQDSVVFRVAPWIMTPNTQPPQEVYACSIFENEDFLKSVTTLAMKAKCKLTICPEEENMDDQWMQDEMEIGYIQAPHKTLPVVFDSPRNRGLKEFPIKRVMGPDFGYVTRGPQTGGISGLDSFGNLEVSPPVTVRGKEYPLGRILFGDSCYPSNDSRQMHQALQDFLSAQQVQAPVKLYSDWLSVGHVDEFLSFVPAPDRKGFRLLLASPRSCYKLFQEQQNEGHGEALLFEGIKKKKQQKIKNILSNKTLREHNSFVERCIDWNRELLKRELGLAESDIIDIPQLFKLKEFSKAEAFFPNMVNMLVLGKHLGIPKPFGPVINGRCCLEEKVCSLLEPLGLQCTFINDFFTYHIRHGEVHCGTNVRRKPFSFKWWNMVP

As to `COc1cc(C(=O)N2C[C@@H]3CNCC[C@@H]32)cc2nc(-c3cc4ccc(N(C(F)F)S(C)(=O)=O)nc4n3CC3CC3)c(C)n12` [Example 283, ~{N}-[1-(cyclopropylmethyl)-2-[7-[(1~{S},6~{S})-3,7-diazabicyclo[4.2.0]octane-7-carbonyl]-5-methoxy-3-methylimidazo[1,2-a]pyridin-2-yl]pyrrolo[2,3-b]pyridin-6-yl]-~{N}-(difluoromethyl) methanesulfonamide], the IC50 (commonly the point on the concentration scale where inhibition reaches its midpoint) is 11.7 µM. Consider `COc1cc(C(=O)N2C[C@H]3CNCC[C@H]32)cc2nc(-c3cc4ccc(N(C(F)F)S(C)(=O)=O)nc4n3CC3CC3)c(C)n12` [Example 284, ~{N}-[1-(cyclopropylmethyl)-2-[7-[(1~{R},6~{R})-3,7-diazabicyclo[4.2.0]octane-7-carbonyl]-5-methoxy-3-methylimidazo[1,2-a]pyridin-2-yl]pyrrolo[2,3-b]pyridin-6-yl]-~{N}-(difluoromethyl) methanesulfonamide], for which the IC50 was 13.4 µM.

In the case of `COc1cc(C(=O)N[C@H]2CNCC[C@@H]2OC)cc2nc(-c3cc4ccc(N(C(F)F)S(C)(=O)=O)nc4n3CC3CC3)c(C)n12` [Example 285, 2-[1-(cyclopropylmethyl)-6-[difluoromethyl (methylsulfonyl)amino]pyrrolo[2,3-b]pyridin-2-yl]-5-methoxy-~ {N}-[(3~{S},4~{S})-4-methoxypiperidin-3-yl]-3-methylimidazo[1,2-a] pyridine-7-carboxamide], the IC50 was 14 µM. As to `COc1cc(C(=O)N2C[C@@H]3CCNCC32)cc2nc(-c3cc4ccc(N(C(F)F)S(C)(=O)=O)nc4n3CC3CC3)c(C)n12` (some centres unmarked) [Example 287, ~{N}-[1-(cyclopropylmethyl)-2-[7-[(6~{S},8~{R})-3,8-diazabicyclo[4.2.0]octane-8-carbonyl]-5-methoxy-3-methylimidazo[1,2-a]pyridin-2-yl]pyrrolo[2,3-b]pyridin-6-yl]-~{N}-(difluoromethyl) methanesulfonamide], the IC50 stood at 46.3 µM. `COc1cc(C(=O)N[C@H]2CNCC[C@@H]2C)cc2nc(-c3cc4ccc(N(C(F)F)S(C)(=O)=O)nc4n3CC3CC3)c(C)n12` [Example 288, 2-[1-(cyclopropylmethyl)-6-[difluoromethyl (methylsulfonyl)amino]pyrrolo[2,3-b]pyridin-2-yl]-5-methoxy-3-methyl-~{N}-[(3~{R},4~{S})-4-methylpiperidin-3-yl]imidazo[1,2-a]pyridine-7-carboxamide]: the IC50 is 8.36 µM.

For the molecule `COc1cc(C(=O)N2C[C@H](N)[C@@H](F)C2)cc2nc(-c3cc4ccc(N(C(F)F)S(C)(=O)=O)nc4n3CC3CC3)c(C)n12` [Example 290, ~{N}-[2-[7-[(3~{S}, 4~{S})-3-amino-4-fluoropyrrolidine-1-carbonyl]-5-methoxy-3-methylimidazo [1,2-a]pyridin-2-yl]-1-(cyclopropylmethyl)pyrrolo [2,3-b]pyridin-6-yl]-~{N}-(difluoromethyl) methanesulfonamide], the IC50 is 9.87 µM. The value for `COc1cc(C(=O)N2C[C@@H](F)[C@@H](N)C2)cc2nc(-c3cc4ccc(N(C(F)F)S(C)(=O)=O)nc4n3CC3CC3)c(C)n12` [Example 291, ~{N}-[2-[7-[(3~{S}, 4~{R})-3-amino-4-fluoropyrrolidine-1-carbonyl]-5-methoxy-3-methylimidazo [1,2-a]pyridin-2-yl]-1-(cyclopropylmethyl)pyrrolo [2,3-b]pyridin-6-yl]-~{N}-(difluoromethyl) methanesulfonamide] was 6.36 µM; that for `COc1cc(C(=O)NC[C@@H]2CCCCN2)cc2nc(-c3cc4ccc(N(C(F)F)S(C)(=O)=O)nc4n3CC3CC3)c(C)n12` [Example 294, 2-[1-(cyclopropylmethyl)-6-[difluoromethyl (methylsulfonyl)amino]pyrrolo[2,3-b]pyridin-2-yl]-5-methoxy-3-methyl-~ {N}-[[(2~{S})-piperidin-2-yl]methyl]imidazo[1,2-a]pyridine-7-carboxamide] was 38.4 µM.

For `COc1cc(C(=O)NC[C@H]2CCCCN2)cc2nc(-c3cc4ccc(N(C(F)F)S(C)(=O)=O)nc4n3CC3CC3)c(C)n12` [Example 295, 2-[1-(cyclopropylmethyl)-6-[difluoromethyl (methylsulfonyl)amino]pyrrolo[2,3-b]pyridin-2-yl]-5-methoxy-3-methyl-~{N}-[[(2~{R})-piperidin-2-yl]methyl] imidazo[1,2-a]pyridine-7-carboxamide], the IC50 amounted to 27.2 µM. With `COc1cc(C(=O)N[C@H]2CCCCNC2)cc2nc(-c3cc4ccc(N(C(F)F)S(C)(=O)=O)nc4n3CC3CC3)c(C)n12` [Example 296, ~{N}-[(3~{S})-azepan-3-yl]-2-[1-(cyclopropylmethyl)-6-[difluoromethyl (methylsulfonyl)amino]pyrrolo[2,3-b]pyridin-2-yl]-5-methoxy-3-methylimidazo[1,2-a]pyridine-7-carboxamide], the IC50 was determined as 24.6 µM. On to `COc1cc(C(=O)N[C@@H]2CC[C@H]3CC[C@@H]2N3)cc2nc(-c3cc4ccc(N(C(F)F)S(C)(=O)=O)nc4n3CC3CC3)c(C)n12` [Example 298, ~{N}-[(1~{S},2~{R}, 5~{R})-8-azabicyclo [3.2.1]octan-2-yl]-2-[1-(cyclopropylmethyl)-6-[difluoromethyl (methylsulfonyl)amino]pyrrolo[2,3-b]pyridin-2-yl]-5-methoxy-3-methylimidazo[1,2-a]pyridine-7-carboxamide], for which the IC50 was 30 µM.

As to `COc1cc(C(=O)N[C@@H]2CC[C@@H]3CC[C@H]2N3)cc2nc(-c3cc4ccc(N(C(F)F)S(C)(=O)=O)nc4n3CC3CC3)c(C)n12` [Example 299, ~{N}-[(1~{R},2~{R}, 5~{S})-8-azabicyclo [3.2.1]octan-2-yl]-2-[1-(cyclopropylmethyl)-6-[difluoromethyl (methylsulfonyl)amino]pyrrolo[2,3-b]pyridin-2-yl]-5-methoxy-3-methylimidazo[1,2-a]pyridine-7-carboxamide], the IC50 was 8.05 µM. The result for `COc1cc(C(=O)NC[C@@H]2CCCN2)cc2nc(-c3cc4ccc(N(C(F)F)S(C)(=O)=O)nc4n3CC3CC3)c(C)n12` [Example 303, 2-[1-(cyclopropylmethyl)-6-[difluoromethyl (methylsulfonyl)amino]pyrrolo[2,3-b]pyridin-2-yl]-5-methoxy-3-methyl-~{N}-[[(2~{S})-pyrrolidin-2-yl]methyl] imidazo[1,2-a] pyridine-7-carboxamide] reads 23.5 µM; that for `COc1cc(C(=O)NC[C@H]2CCCN2)cc2nc(-c3cc4ccc(N(C(F)F)S(C)(=O)=O)nc4n3CC3CC3)c(C)n12` [Example 304, 2-[1-(cyclopropylmethyl)-6-[difluoromethyl (methylsulfonyl)amino]pyrrolo[2,3-b]pyridin-2-yl]-5-methoxy-3-methyl-~{N}-[[(2~{R})-pyrrolidin-2-yl]methyl] imidazo[1,2-a]pyridine-7-carboxamide], 19.2 µM; that for `COc1cc(C(=O)N[C@H]2CNC[C@H](F)C2)cc2nc(-c3cc4ccc(N(C(F)F)S(C)(=O)=O)nc4n3CC3CC3)c(C)n12` [Example 306, 2-[1-(cyclopropylmethyl)-6-[difluoromethyl (methylsulfonyl)amino]pyrrolo[2,3-b]pyridin-2-yl]-~{N}-[(3~{R},5~{R})-5-fluoropiperidin-3-yl]-5-methoxy-3-methylimidazo [1,2-a]pyridine-7-carboxamide], 1.61 µM. On to `COc1cc(C(=O)N[C@H]2CNC[C@@H](F)C2)cc2nc(-c3cc4ccc(N(C(F)F)S(C)(=O)=O)nc4n3CC3CC3)c(C)n12` [Example 307, 2-[1-(cyclopropylmethyl)-6-[difluoromethyl (methylsulfonyl)amino]pyrrolo[2,3-b]pyridin-2-yl]-~{N}-[(3~{R},5~{S})-5-fluoropiperidin-3-yl]-5-methoxy-3-methylimidazo [1,2-a]pyridine-7-carboxamide], for which the IC50 amounted to 25.6 µM. The result for `COc1cc(C(=O)N2CC[C@H]3CCCN[C@H]3C2)cc2nc(-c3cc4ccc(N(C(F)F)S(C)(=O)=O)nc4n3CC3CC3)c(C3CC3)n12` [Example 310, ~{N}-[2-[7-[(4~{a}~{R},8~{a}~{R})-2,3,4,4~{a},5,6,8,8~{a}-octahydro-1~{H}-1,7-naphthyridine-7-carbonyl]-3-cyclopropyl-5-methoxyimidazo [1,2-a]pyridin-2-yl]-1-(cyclopropylmethyl)pyrrolo [2,3-b]pyridin-6-yl]-~{N}-(difluoromethyl) methanesulfonamide] reads 0.886 µM; that for `COc1cc(C(=O)N2[C@H]3CC[C@@H]2[C@H](N)[C@H](O)C3)cc2nc(-c3cc4ccc(N(C(F)F)S(C)(=O)=O)nc4n3CC3CC3)c(C)n12` [Example 311, ~{N}-[2-[7-[(1~{R}, 2~{S},3~{R},5~{S})-2-amino-3-hydroxy-8-azabicyclo[3.2.1]octane-8-carbonyl]-5-methoxy-3-methylimidazo [1,2-a]pyridin-2-yl]-1-(cyclopropylmethyl)pyrrolo [2,3-b]pyridin-6-yl]-~{N}-(difluoromethyl) methanesulfonamide], 0.383 µM; that for `COc1cc(C(=O)N[C@@H]2C[C@@H]3CC[C@H]2N3)cc2nc(-c3cc4ccc(N(C(F)F)S(C)(=O)=O)nc4n3CC3CC3)c(C)n12` [Example 312, N-[(1R,2R,4S)-7-azabicyclo[2.2.1]heptan-2-yl]-2-[1-(cyclopropylmethyl)-6-[difluoromethyl (methylsulfonyl)amino]pyrrolo[2,3-b]pyridin-2-yl]-5-methoxy-3-methyl-imidazo[1,2-a] pyridine-7-carboxamide], 31.2 µM. The value for `COc1cc(C(=O)N[C@H]2CNCC[C@H]2C)cc2nc(-c3cc4ccc(N(C(F)F)S(C)(=O)=O)nc4n3CC3CC3)c(C)n12` [Example 313, 2-[1-(cyclopropylmethyl)-6-[difluoromethyl (methylsulfonyl)amino]pyrrolo[2,3-b]pyridin-2-yl]-5-methoxy-3-methyl-~{N}-[(3~{R},4~{R})-4-methylpiperidin-3-yl]imidazo[1,2-a] pyridine-7-carboxamide] was 24.2 µM.
